The numbers were not newly measured in article doi:10.1101/2025.04.01.646723v2 (bioRxiv, 2025), which cites them from elsewhere.

This data set relates to N. benthamiana leaves. Particulars: DCIP, 100 μM, at least 5 biological replicates, ref [15].

For the substance nona-arginine [R9], the “cellular internalization (in words)” value was “efficiently internalized”.
